Data taken from paper PMC5218480 (PLoS ONE, 2017).

Test system: MV-4-11 cells
Test: Gene expression microarray analysis (Affymetrix PrimeView) and GSEA
Type: cell-based, human
Parameters: RFU PODN (11730768_x_at) / Fold change /veh PODN (11730768_x_at) / RFU LINC00158 (11744669_a_at) / Fold change /veh LINC00158 (11744669_a_at) / RFU DUSP10 (11751237_a_at) / Fold change /veh DUSP10 (11751237_a_at) / RFU ID3 (11757404_x_at) / Fold change /veh ID3 (11757404_x_at) / RFU PLEKHG5 (11737974_s_at) / Fold change /veh PLEKHG5 (11737974_s_at) / RFU LRRC4B (11730491_at) / Fold change /veh LRRC4B (11730491_at) / RFU GIMAP4 (11747438_a_at) / Fold change /veh GIMAP4 (11747438_a_at) / RFU KRT8 (11758183_x_at) / Fold change /veh KRT8 (11758183_x_at) / RFU CNN1 (11734310_a_at) / Fold change /veh CNN1 (11734310_a_at) / RFU VPS37D (11726825_at) / Fold change /veh VPS37D (11726825_at) / RFU C10orf10 (11716522_x_at) / Fold change /veh C10orf10 (11716522_x_at) / RFU KIR2DL2 /// KIR2DL4 /// KIR2DL5A /// KIR2DL5B /// KIR2DS1 /// KIR2DS2 /// KIR2DS3 /// KIR2DS4 /// KIR3DL3 /// KIR3DL3 /// KIR3DS1 (11738374_at) / Fold change /veh KIR2DL2 /// KIR2DL4 /// KIR2DL5A /// KIR2DL5B /// KIR2DS1 /// KIR2DS2 /// KIR2DS3 /// KIR2DS4 /// KIR3DL3 /// KIR3DL3 /// KIR3DS1 (11738374_at) / RFU C1QL1 (11718748_at) / Fold change /veh C1QL1 (11718748_at) / RFU TMPRSS4 (11747572_a_at) / Fold change /veh TMPRSS4 (11747572_a_at) / RFU HAMP (11756126_x_at) / Fold change /veh HAMP (11756126_x_at) / RFU RNFT2 (11725882_a_at) / Fold change /veh RNFT2 (11725882_a_at) / RFU NR4A2 (11747474_a_at) / Fold change /veh NR4A2 (11747474_a_at) / RFU ABCC12 (11746883_a_at) / Fold change /veh ABCC12 (11746883_a_at) / RFU TMEM136 (11760407_x_at) / Fold change /veh TMEM136 (11760407_x_at) / RFU CLDN22 /// WWC2 (11732394_at) / Fold change /veh CLDN22 /// WWC2 (11732394_at) / RFU HLA-DPB1 (11760878_x_at) / Fold change /veh HLA-DPB1 (11760878_x_at) / RFU SPINT1 (11716480_a_at) / Fold change /veh SPINT1 (11716480_a_at) / RFU GAP43 (11754022_s_at) / Fold change /veh GAP43 (11754022_s_at) / RFU A4GNT (11735810_at) / Fold change /veh A4GNT (11735810_at) / RFU PRB3 (11715151_x_at) / Fold change /veh PRB3 (11715151_x_at) / RFU TUBB4B (11761932_at) / Fold change /veh TUBB4B (11761932_at) / RFU CAPN14 (11732068_a_at) / Fold change /veh CAPN14 (11732068_a_at) / RFU TMCC2 (11721928_a_at) / Fold change /veh TMCC2 (11721928_a_at) / RFU IRGQ (11745062_a_at) / Fold change /veh IRGQ (11745062_a_at) / RFU FAM174B (11720279_a_at) / Fold change /veh FAM174B (11720279_a_at) / RFU TMPRSS4 (11748680_a_at) / Fold change /veh TMPRSS4 (11748680_a_at) / RFU FAM212B (11763350_a_at) / Fold change /veh FAM212B (11763350_a_at) / RFU PLEKHG5 (11743358_a_at) / Fold change /veh PLEKHG5 (11743358_a_at) / RFU ZSCAN30 (11745921_a_at) / Fold change /veh ZSCAN30 (11745921_a_at) / RFU CMKLR1 (11741424_a_at) / Fold change /veh CMKLR1 (11741424_a_at) / RFU LOC101060620 /// MAPK8IP1 (11723275_at) / Fold change /veh LOC101060620 /// MAPK8IP1 (11723275_at) / RFU SPTSSB (11747773_x_at) / Fold change /veh SPTSSB (11747773_x_at) / RFU PRSS12 (11739890_at) / Fold change /veh PRSS12 (11739890_at) / RFU BIN1 (11741810_x_at) / Fold change /veh BIN1 (11741810_x_at) / RFU WNT11 (11732464_a_at) / Fold change /veh WNT11 (11732464_a_at) / RFU C10orf10 (11716521_a_at) / Fold change /veh C10orf10 (11716521_a_at) / RFU C5orf56 (11738089_at) / Fold change /veh C5orf56 (11738089_at) / RFU CYB561 (11721691_x_at) / Fold change /veh CYB561 (11721691_x_at) / RFU ANKRD19P (11752326_a_at) / Fold change /veh ANKRD19P (11752326_a_at) / RFU OR2T12 /// OR2T33 /// OR2T8 (11738714_s_at) / Fold change /veh OR2T12 /// OR2T33 /// OR2T8 (11738714_s_at) / RFU VCAN (11748164_a_at) / Fold change /veh VCAN (11748164_a_at) / RFU JSRP1 (11732532_at) / Fold change /veh JSRP1 (11732532_at) / RFU KRTAP10-11 (11738290_x_at) / Fold change /veh KRTAP10-11 (11738290_x_at) / RFU MYO3A (11730013_a_at) / Fold change /veh MYO3A (11730013_a_at) / RFU EBF3 (11725865_a_at) / Fold change /veh EBF3 (11725865_a_at) / RFU CAMK2N1 (11719241_x_at) / Fold change /veh CAMK2N1 (11719241_x_at) / RFU C5orf56 (11738088_a_at) / Fold change /veh C5orf56 (11738088_a_at) / RFU OLFML3 (11715873_a_at) / Fold change /veh OLFML3 (11715873_a_at) / RFU LOC100653217 /// NTM (11731650_a_at) / Fold change /veh LOC100653217 /// NTM (11731650_a_at) / RFU MAPK11 (11762145_a_at) / Fold change /veh MAPK11 (11762145_a_at) / RFU FIZ1 (11724087_x_at) / Fold change /veh FIZ1 (11724087_x_at) / RFU OASL (11726364_x_at) / Fold change /veh OASL (11726364_x_at) / RFU SOX15 (11748057_x_at) / Fold change /veh SOX15 (11748057_x_at) / RFU CD79A (11719716_a_at) / Fold change /veh CD79A (11719716_a_at) / RFU HIST1H1D (11736915_at) / Fold change /veh HIST1H1D (11736915_at) / RFU CASKIN2 (11723855_a_at) / Fold change /veh CASKIN2 (11723855_a_at) / RFU LOC730098 (11760151_x_at) / Fold change /veh LOC730098 (11760151_x_at) / RFU OR4N2 (11742367_at) / Fold change /veh OR4N2 (11742367_at) / RFU PRRT2 (11749266_a_at) / Fold change /veh PRRT2 (11749266_a_at) / RFU SNX32 (11753110_a_at) / Fold change /veh SNX32 (11753110_a_at) / RFU CDHR5 (11726645_a_at) / Fold change /veh CDHR5 (11726645_a_at) / RFU RCAN1 (11760418_a_at) / Fold change /veh RCAN1 (11760418_a_at) / RFU FAM167A (11723789_a_at) / Fold change /veh FAM167A (11723789_a_at) / RFU FAM26E (11764081_at) / Fold change /veh FAM26E (11764081_at) / RFU ISYNA1 (11749810_s_at) / Fold change /veh ISYNA1 (11749810_s_at) / RFU ACY1 (11761880_at) / Fold change /veh ACY1 (11761880_at) / RFU 11764098_at / Fold change /veh 11764098_at / RFU SAMD14 (11745864_x_at) / Fold change /veh SAMD14 (11745864_x_at) / RFU NPB (11741838_a_at) / Fold change /veh NPB (11741838_a_at) / RFU TMPRSS6 (11731388_a_at) / Fold change /veh TMPRSS6 (11731388_a_at) / RFU KRTAP10-2 (11738614_at) / Fold change /veh KRTAP10-2 (11738614_at) / RFU ARHGAP8 /// PRR5-ARHGAP8 (11727945_x_at) / Fold change /veh ARHGAP8 /// PRR5-ARHGAP8 (11727945_x_at) / RFU KRTAP5-7 /// NADSYN1 (11734609_at) / Fold change /veh KRTAP5-7 /// NADSYN1 (11734609_at) / RFU RASL12 (11751679_a_at) / Fold change /veh RASL12 (11751679_a_at) / RFU CDKN2B (11736163_a_at) / Fold change /veh CDKN2B (11736163_a_at) / RFU PRF1 (11729649_at) / Fold change /veh PRF1 (11729649_at) / RFU, ZNF638 /// ZNF638-IT1 / Fold change vs veh, ZNF638 /// ZNF638-IT1 / RFU, PANK3 / Fold change vs veh, PANK3 / RFU, SH3YL1 / Fold change vs veh, SH3YL1 / RFU, ZEB2 / Fold change vs veh, ZEB2 / RFU, NRIP1 / Fold change vs veh, NRIP1 / RFU, PTTG1IP / Fold change vs veh, PTTG1IP / RFU, CAPN2 / Fold change vs veh, CAPN2 / RFU, MED14 / Fold change vs veh, MED14 / RFU, SNORA58 / Fold change vs veh, SNORA58 / RFU, C1orf63 / Fold change vs veh, C1orf63 / RFU, LRRFIP1 / Fold change vs veh, LRRFIP1 / RFU, NDUFAF7 / Fold change vs veh, NDUFAF7 / RFU, SLC12A2 / Fold change vs veh, SLC12A2 / RFU, IBTK / Fold change vs veh, IBTK / RFU, ESF1 / Fold change vs veh, ESF1 / Fold change vs veh, TMEM50B / RFU, TAOK1 / Fold change vs veh, TAOK1 / RFU, ACBD3 / Fold change vs veh, ACBD3 / RFU, TMA16 / Fold change vs veh, TMA16 / RFU, RWDD3 / Fold change vs veh, RWDD3 / RFU, BCAT1 / Fold change vs veh, BCAT1 / RFU, EDEM3 / Fold change vs veh, EDEM3 / RFU, TMEM33 / Fold change vs veh, TMEM33 / RFU, WDR75 / Fold change vs veh, WDR75 / RFU, AHCTF1 / Fold change vs veh, AHCTF1 / RFU, TFRC / Fold change vs veh, TFRC / RFU, ZDHHC17 / Fold change vs veh, ZDHHC17 / RFU, NOM1 / Fold change vs veh, NOM1 / RFU, ARL8B / Fold change vs veh, ARL8B / RFU, ZBTB11 / Fold change vs veh, ZBTB11 / RFU, TAMM41 / Fold change vs veh, TAMM41 / RFU, KIAA1704 /// LOC100996395 / Fold change vs veh, KIAA1704 /// LOC100996395 / RFU, ING1 / Fold change vs veh, ING1 / RFU, TRMT61B / Fold change vs veh, TRMT61B / RFU, FUBP3 / Fold change vs veh, FUBP3 / RFU, TP53 / Fold change vs veh, TP53 / RFU, TNKS2 / Fold change vs veh, TNKS2 / RFU, ZFP14 / Fold change vs veh, ZFP14 / RFU, ACTR2 / Fold change vs veh, ACTR2 / RFU, PPP3R1 / Fold change vs veh, PPP3R1 / RFU, PIK3R1 / Fold change vs veh, PIK3R1 / RFU, HNRNPA1 / Fold change vs veh, HNRNPA1 / RFU, RNF170 / Fold change vs veh, RNF170 / RFU, ZNF28 / Fold change vs veh, ZNF28 / RFU, RNGTT / Fold change vs veh, RNGTT / RFU, OGT / Fold change vs veh, OGT / RFU, BRD1 / Fold change vs veh, BRD1 / RFU, MARS / Fold change vs veh, MARS / RFU, ZNF655 / Fold change vs veh, ZNF655 / RFU, FAHD1 / Fold change vs veh, FAHD1 / RFU, BDP1 / Fold change vs veh, BDP1 / RFU, LRRCC1 / Fold change vs veh, LRRCC1 / RFU, ARID1A / Fold change vs veh, ARID1A / RFU, ZNF146 / Fold change vs veh, ZNF146 / RFU, ZNF330 / Fold change vs veh, ZNF330 / RFU, GPN3 / Fold change vs veh, GPN3 / RFU, C9orf123 / Fold change vs veh, C9orf123 / RFU, N4BP2L2 / Fold change vs veh, N4BP2L2 / RFU, ARFIP1 / Fold change vs veh, ARFIP1 / RFU, FAM179B / Fold change vs veh, FAM179B / RFU, BCL10 / Fold change vs veh, BCL10 / RFU, UHRF1BP1L / Fold change vs veh, UHRF1BP1L / RFU, BET1 / Fold change vs veh, BET1 / RFU, CNOT2 / Fold change vs veh, CNOT2 / RFU, ZNF268 / Fold change vs veh, ZNF268 / Fold change vs veh, ZNF507 / RFU, DGCR2 / Fold change vs veh, DGCR2 / RFU, WDSUB1 / Fold change vs veh, WDSUB1 / Fold change vs veh, HSP90B1 /// MIR3652 / RFU, ADSS / Fold change vs veh, ADSS / RFU, GK / Fold change vs veh, GK / RFU, ZNF148 / Fold change vs veh, ZNF148 / RFU, TAF9 / Fold change vs veh, TAF9 / RFU, SLC1A5 / Fold change vs veh, SLC1A5 / RFU, SLMO2 / Fold change vs veh, SLMO2 / RFU, ABCC4 / Fold change vs veh, ABCC4 / RFU, LOC101060439 /// RAP1B / Fold change vs veh, LOC101060439 /// RAP1B / RFU, RFX7 / Fold change vs veh, RFX7 / RFU, GTPBP10 / Fold change vs veh, GTPBP10 / RFU, CNEP1R1 / Fold change vs veh, CNEP1R1 / RFU, BIVM-ERCC5 /// ERCC5 / Fold change vs veh, BIVM-ERCC5 /// ERCC5 / RFU, ILF3 / Fold change vs veh, ILF3 / RFU 11762660_at / Fold change /veh 11762660_at / RFU VCAN (11757783_s_at) / Fold change /veh VCAN (11757783_s_at) / RFU DDX43 (11728927_at) / Fold change /veh DDX43 (11728927_at) / RFU KRT8 (11758188_x_at) / Fold change /veh KRT8 (11758188_x_at) / RFU NKD1 (11759106_at) / Fold change /veh NKD1 (11759106_at) / RFU SRD5A1 (11742802_a_at) / Fold change /veh SRD5A1 (11742802_a_at) / RFU TPSAB1 /// TPSB2 (11721975_s_at) / Fold change /veh TPSAB1 /// TPSB2 (11721975_s_at) / RFU GSTM3 (11746129_a_at) / Fold change /veh GSTM3 (11746129_a_at) / RFU IL23R (11737362_x_at) / Fold change /veh IL23R (11737362_x_at) / RFU TMEM51 (11727254_a_at) / Fold change /veh TMEM51 (11727254_a_at) / RFU PIWIL2 (11732686_x_at) / Fold change /veh PIWIL2 (11732686_x_at) / RFU ORM1 (11744905_x_at) / Fold change /veh ORM1 (11744905_x_at) / RFU CCDC152 (11743942_at) / Fold change /veh CCDC152 (11743942_at) / RFU ECM1 (11717891_a_at) / Fold change /veh ECM1 (11717891_a_at) / RFU IL23R (11748794_a_at) / Fold change /veh IL23R (11748794_a_at) / RFU TNFAIP8L3 (11732012_x_at) / Fold change /veh TNFAIP8L3 (11732012_x_at) / RFU MBOAT4 (11741988_at) / Fold change /veh MBOAT4 (11741988_at) / RFU 11764193_at / Fold change /veh 11764193_at / RFU TMEM53 (11763286_at) / Fold change /veh TMEM53 (11763286_at) / RFU MAGEB2 (11727129_at) / Fold change /veh MAGEB2 (11727129_at) / RFU TMEM200A (11744735_a_at) / Fold change /veh TMEM200A (11744735_a_at) / RFU CCDC152 (11751479_a_at) / Fold change /veh CCDC152 (11751479_a_at) / RFU FAM211A (11726209_a_at) / Fold change /veh FAM211A (11726209_a_at) / RFU RGS16 (11746705_a_at) / Fold change /veh RGS16 (11746705_a_at) / RFU VCAN (11755009_s_at) / Fold change /veh VCAN (11755009_s_at) / RFU RHOB (11743442_s_at) / Fold change /veh RHOB (11743442_s_at) / RFU RGS16 (11720943_a_at) / Fold change /veh RGS16 (11720943_a_at) / RFU RGS16 (11720944_at) / Fold change /veh RGS16 (11720944_at) / RFU, VPS4B / Fold change vs veh, VPS4B / RFU, CREB1 / Fold change vs veh, CREB1 / RFU, DNAJC13 / Fold change vs veh, DNAJC13 / RFU, GNAQ / Fold change vs veh, GNAQ / RFU, CDK5R1 / Fold change vs veh, CDK5R1 / RFU, ZRANB3 / Fold change vs veh, ZRANB3 / RFU, CUL4A / Fold change vs veh, CUL4A / RFU, CCNY / Fold change vs veh, CCNY / RFU, UFL1 / Fold change vs veh, UFL1 / RFU, COG3 / Fold change vs veh, COG3 / RFU, DIAPH2 / Fold change vs veh, DIAPH2 / RFU, SKA2 / Fold change vs veh, SKA2 / RFU, AFF3 / Fold change vs veh, AFF3 / RFU, LMF1 / Fold change vs veh, LMF1 / RFU, IPO11 / Fold change vs veh, IPO11 / RFU, DFFB / Fold change vs veh, DFFB / RFU, FOXP1 / Fold change vs veh, FOXP1 / RFU, CARD8 / Fold change vs veh, CARD8 / RFU, STRN3 / Fold change vs veh, STRN3 / RFU, ADK / Fold change vs veh, ADK / RFU, RASSF2 / Fold change vs veh, RASSF2 / RFU, WIPF1 / Fold change vs veh, WIPF1 / RFU, LARP1B / Fold change vs veh, LARP1B / RFU, RASA1 / Fold change vs veh, RASA1 / RFU, RB1 / Fold change vs veh, RB1 / RFU, PPFIA1 / Fold change vs veh, PPFIA1 / RFU, MAT2A / Fold change vs veh, MAT2A / RFU, CCT5 / Fold change vs veh, CCT5 / RFU, WDR92 / Fold change vs veh, WDR92 / RFU, CUX1 / Fold change vs veh, CUX1 / RFU, TTC7A / Fold change vs veh, TTC7A / RFU, TMEM135 / Fold change vs veh, TMEM135 / RFU, DEPTOR / Fold change vs veh, DEPTOR / RFU, CPM / Fold change vs veh, CPM / RFU, DNAJB6 / Fold change vs veh, DNAJB6 / RFU, CACNA2D3 / Fold change vs veh, CACNA2D3 / RFU, DTX4 / Fold change vs veh, DTX4 / RFU, TFCP2 / Fold change vs veh, TFCP2 / RFU, GMCL1 /// GMCL1P1 / Fold change vs veh, GMCL1 /// GMCL1P1 / RFU, AEBP2 / Fold change vs veh, AEBP2 / RFU, SNHG1 /// SNORD22 /// SNORD25 /// SNORD26 /// SNORD27 /// SNORD28 /// SNORD29 /// SNORD31 / Fold change vs veh, SNHG1 /// SNORD22 /// SNORD25 /// SNORD26 /// SNORD27 /// SNORD28 /// SNORD29 /// SNORD31 / Fold change (Aza/veh), C12orf56 (ProbeSet 11735607_a_at) / Fold change (ACY-1035/veh), C12orf56 (ProbeSet 11735607_a_at) / Fold change (Aza/veh), FGFR1OP (ProbeSet 11751329_s_at) / Fold change (ACY-1035/veh), FGFR1OP (ProbeSet 11751329_s_at) / Fold change (Aza/veh), VPS36 (ProbeSet 11739960_a_at) / Fold change (ACY-1035/veh), VPS36 (ProbeSet 11739960_a_at) / RFU SYPL1 (11715823_x_at) / Fold change /veh SYPL1 (11715823_x_at) / RFU IGFBP7 (11715501_s_at) / Fold change /veh IGFBP7 (11715501_s_at) / RFU REEP3 (11722064_at) / Fold change /veh REEP3 (11722064_at) / RFU IGLL1 (11728026_x_at) / Fold change /veh IGLL1 (11728026_x_at): dose or concentration left out as unconfirmed
Conditions: MV-4-11 cells, 48 hours

In the case of `Nc1ncn([C@@H]2O[C@H](CO)[C@@H](O)[C@H]2O)c(=O)n1` [azacitidine], the “Fold change /veh PRB3 (11715151_x_at)” value is reported as 0.94.
